Assays:
Test in all cases: biochemical
Conditions in all cases: read-out: % inhibition mean (Lanthascreen)
[1] = molecular target: MAP2K6 (MKK6) S207E T211E (Homo sapiens, UniProt P52564, S207E/T211E)
[2] = molecular target: STK38L (NDR2) (Homo sapiens, UniProt Q9Y2H1)
[3] = molecular target: MAP2K2 (MEK2) (Homo sapiens, UniProt P36507)
[4] = molecular target: DDR2 T654M (Homo sapiens, UniProt Q16832, T654M)
[5] = molecular target: FGFR3 K650M (Homo sapiens, UniProt P22607, K650M)
[6] = molecular target: KIT V559D T670I (Homo sapiens, UniProt P10721, T670I/V559D)
[7] = molecular target: ICK (Homo sapiens, UniProt Q9UPZ9)
[8] = molecular target: MKNK2 (MNK2) (Homo sapiens, UniProt Q9HBH9)
[9] = molecular target: STK38 (NDR) (Homo sapiens, UniProt Q15208)
[10] = molecular target: RET G691S (Homo sapiens, UniProt P07949, G691S)
[11] = molecular target: GAK (Homo sapiens, UniProt O14976)
[12] = molecular target: ADCK3 (Homo sapiens, UniProt Q8NI60)
[13] = molecular target: CDK9 (Inactive) (Homo sapiens, UniProt P50750)
[14] = molecular target: ALK C1156Y (Homo sapiens, UniProt Q9UM73, C1156Y)
[15] = molecular target: MAP4K3 (GLK) (Homo sapiens, UniProt Q8IVH8)
[16] = molecular target: ULK1 (Homo sapiens, UniProt O75385)
[17] = molecular target: ACVR1 (ALK2) (Homo sapiens, UniProt Q04771)
[18] = molecular target: WNK3 (Homo sapiens, UniProt Q9BYP7)
[19] = molecular target: AMPK (A1/B1/G3) (Homo sapiens, UniProt Q13131)
[20] = molecular target: MYLK4 (Homo sapiens, UniProt Q86YV6)
[21] = molecular target: MAPK10 (JNK3) (Homo sapiens, UniProt P53779)
[22] = molecular target: KIT T670E (Homo sapiens, UniProt P10721, T670E)
[23] = molecular target: ACVR2A (Homo sapiens, UniProt P27037)
[24] = molecular target: MAP2K1 (MEK1) (Homo sapiens, UniProt Q02750)
[25] = molecular target: AMPK (A2/B2/G2) (Homo sapiens, UniProt P54646)
[26] = molecular target: FGFR1 V561M (Homo sapiens, UniProt P11362, V561M)
[27] = molecular target: MERTK (cMER) A708S (Homo sapiens, UniProt Q12866, A708S)
[28] = molecular target: RIPK2 (Homo sapiens, UniProt O43353)

Chain of ULK1 (O75385 whole entry): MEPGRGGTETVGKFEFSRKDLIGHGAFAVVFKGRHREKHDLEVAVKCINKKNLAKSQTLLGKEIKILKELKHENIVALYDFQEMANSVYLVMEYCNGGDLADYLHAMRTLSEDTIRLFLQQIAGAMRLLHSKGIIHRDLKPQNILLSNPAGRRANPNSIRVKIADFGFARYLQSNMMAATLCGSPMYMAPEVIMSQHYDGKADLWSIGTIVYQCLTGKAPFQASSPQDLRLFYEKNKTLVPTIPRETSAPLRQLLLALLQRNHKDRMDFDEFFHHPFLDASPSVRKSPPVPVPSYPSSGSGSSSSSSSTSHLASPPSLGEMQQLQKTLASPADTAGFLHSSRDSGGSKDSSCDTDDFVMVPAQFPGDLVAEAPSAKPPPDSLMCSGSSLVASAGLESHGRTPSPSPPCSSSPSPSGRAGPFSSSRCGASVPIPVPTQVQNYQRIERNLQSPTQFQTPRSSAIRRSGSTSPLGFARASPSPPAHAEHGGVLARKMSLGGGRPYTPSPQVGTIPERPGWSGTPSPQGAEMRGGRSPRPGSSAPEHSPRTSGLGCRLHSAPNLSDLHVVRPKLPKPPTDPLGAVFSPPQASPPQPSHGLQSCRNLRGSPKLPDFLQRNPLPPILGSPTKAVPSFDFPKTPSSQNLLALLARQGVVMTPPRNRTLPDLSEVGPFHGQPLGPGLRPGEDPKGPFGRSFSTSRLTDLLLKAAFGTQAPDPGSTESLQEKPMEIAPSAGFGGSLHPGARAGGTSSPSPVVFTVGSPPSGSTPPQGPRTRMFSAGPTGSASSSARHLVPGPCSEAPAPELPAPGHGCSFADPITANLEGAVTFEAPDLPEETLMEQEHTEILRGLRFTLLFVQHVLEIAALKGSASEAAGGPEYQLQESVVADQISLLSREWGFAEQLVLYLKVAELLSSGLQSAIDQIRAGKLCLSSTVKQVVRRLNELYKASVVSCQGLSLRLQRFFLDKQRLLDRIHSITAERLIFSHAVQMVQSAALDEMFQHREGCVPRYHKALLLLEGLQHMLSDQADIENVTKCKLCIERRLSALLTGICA
Chain of ICK (Q9UPZ9 whole entry): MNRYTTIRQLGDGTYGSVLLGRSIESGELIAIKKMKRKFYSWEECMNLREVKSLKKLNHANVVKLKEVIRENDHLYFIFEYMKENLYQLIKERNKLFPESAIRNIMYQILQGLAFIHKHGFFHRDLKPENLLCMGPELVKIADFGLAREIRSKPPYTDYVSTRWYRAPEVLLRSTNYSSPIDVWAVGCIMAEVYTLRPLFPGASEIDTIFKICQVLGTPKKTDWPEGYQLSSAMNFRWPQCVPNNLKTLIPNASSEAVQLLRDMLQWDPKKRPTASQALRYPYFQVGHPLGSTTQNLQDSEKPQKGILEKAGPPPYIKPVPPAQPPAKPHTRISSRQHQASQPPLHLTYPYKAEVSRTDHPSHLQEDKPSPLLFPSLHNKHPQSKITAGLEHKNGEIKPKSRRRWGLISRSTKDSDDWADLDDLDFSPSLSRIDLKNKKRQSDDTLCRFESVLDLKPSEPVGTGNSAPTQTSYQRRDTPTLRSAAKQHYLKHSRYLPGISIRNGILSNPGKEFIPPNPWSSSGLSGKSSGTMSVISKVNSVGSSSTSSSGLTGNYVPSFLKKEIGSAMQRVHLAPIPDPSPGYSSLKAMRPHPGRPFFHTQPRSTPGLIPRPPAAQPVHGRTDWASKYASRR
Chain of WNK3 (Q9BYP7 whole entry): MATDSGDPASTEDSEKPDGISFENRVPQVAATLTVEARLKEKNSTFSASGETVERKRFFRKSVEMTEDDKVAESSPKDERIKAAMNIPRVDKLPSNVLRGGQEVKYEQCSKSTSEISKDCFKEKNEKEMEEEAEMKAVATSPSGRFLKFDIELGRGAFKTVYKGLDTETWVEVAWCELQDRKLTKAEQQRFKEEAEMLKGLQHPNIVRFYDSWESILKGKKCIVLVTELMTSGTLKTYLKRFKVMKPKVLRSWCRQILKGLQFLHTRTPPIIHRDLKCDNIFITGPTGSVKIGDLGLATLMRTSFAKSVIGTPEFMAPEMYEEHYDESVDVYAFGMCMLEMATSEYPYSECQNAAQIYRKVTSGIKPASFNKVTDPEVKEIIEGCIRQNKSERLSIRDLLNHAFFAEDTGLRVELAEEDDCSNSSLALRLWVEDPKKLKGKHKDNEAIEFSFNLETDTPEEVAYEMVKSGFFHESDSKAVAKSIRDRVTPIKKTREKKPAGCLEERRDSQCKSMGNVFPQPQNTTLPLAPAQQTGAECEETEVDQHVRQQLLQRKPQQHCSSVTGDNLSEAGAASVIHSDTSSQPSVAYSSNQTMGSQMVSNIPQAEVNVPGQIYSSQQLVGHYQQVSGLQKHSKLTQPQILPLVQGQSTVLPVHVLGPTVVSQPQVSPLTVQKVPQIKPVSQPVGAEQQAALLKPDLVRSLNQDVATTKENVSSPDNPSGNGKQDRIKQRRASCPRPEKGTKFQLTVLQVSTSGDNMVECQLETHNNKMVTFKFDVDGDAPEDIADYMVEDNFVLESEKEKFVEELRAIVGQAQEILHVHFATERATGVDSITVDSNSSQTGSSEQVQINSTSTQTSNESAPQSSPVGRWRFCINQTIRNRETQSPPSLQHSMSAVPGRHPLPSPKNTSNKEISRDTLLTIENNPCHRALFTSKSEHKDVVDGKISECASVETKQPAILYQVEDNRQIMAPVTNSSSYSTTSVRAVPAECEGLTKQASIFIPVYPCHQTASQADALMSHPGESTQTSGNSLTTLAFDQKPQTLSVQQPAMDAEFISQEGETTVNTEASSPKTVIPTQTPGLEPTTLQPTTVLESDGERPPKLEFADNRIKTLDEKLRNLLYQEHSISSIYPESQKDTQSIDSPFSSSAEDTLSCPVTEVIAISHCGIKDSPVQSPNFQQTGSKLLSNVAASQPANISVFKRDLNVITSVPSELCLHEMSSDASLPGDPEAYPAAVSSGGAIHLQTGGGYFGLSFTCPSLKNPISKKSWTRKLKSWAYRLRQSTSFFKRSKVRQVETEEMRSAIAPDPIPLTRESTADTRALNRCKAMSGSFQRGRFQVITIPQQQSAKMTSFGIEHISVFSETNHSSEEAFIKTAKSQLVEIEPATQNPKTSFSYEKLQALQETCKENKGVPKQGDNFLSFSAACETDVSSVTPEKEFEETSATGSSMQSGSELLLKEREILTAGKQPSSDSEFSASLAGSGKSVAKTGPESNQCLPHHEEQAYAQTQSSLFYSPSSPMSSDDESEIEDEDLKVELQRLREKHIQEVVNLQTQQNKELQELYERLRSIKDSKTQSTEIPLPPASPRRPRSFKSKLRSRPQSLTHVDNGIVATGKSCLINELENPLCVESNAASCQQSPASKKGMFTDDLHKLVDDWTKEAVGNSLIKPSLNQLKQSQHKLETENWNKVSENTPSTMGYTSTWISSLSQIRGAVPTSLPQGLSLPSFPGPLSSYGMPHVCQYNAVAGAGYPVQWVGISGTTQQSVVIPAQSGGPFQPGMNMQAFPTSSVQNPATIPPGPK
Chain of AMPK (A1/B1/G3) (Q13131 whole entry): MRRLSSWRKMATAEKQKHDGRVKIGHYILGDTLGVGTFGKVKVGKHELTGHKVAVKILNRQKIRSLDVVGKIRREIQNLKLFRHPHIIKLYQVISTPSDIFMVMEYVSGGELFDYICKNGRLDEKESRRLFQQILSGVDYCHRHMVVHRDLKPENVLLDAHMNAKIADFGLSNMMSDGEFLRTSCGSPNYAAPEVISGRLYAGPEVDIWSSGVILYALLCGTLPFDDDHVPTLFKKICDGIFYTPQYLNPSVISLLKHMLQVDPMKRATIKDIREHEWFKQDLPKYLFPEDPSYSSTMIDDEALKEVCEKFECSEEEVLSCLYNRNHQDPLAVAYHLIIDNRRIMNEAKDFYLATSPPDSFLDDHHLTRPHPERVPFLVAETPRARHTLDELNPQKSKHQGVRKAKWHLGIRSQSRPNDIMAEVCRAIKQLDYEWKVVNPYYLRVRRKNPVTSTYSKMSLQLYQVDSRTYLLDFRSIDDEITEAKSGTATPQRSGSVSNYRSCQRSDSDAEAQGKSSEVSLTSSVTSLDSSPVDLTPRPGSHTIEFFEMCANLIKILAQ
Chain of AMPK (A1/B1/G3) (Q9UGI9 whole entry partner): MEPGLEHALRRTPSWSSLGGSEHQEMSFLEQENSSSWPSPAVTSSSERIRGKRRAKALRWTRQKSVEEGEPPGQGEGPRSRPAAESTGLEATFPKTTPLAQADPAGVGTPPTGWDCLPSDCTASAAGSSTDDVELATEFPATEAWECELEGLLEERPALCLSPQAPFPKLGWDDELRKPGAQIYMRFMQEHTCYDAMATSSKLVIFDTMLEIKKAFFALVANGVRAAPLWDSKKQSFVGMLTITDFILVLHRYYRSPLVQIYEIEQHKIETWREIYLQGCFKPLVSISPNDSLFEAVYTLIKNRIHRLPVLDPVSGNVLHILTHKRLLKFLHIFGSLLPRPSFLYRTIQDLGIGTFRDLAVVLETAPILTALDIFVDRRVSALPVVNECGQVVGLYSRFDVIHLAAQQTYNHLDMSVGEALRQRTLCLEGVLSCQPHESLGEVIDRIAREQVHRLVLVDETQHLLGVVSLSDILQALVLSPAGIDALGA
Chain of AMPK (A1/B1/G3) (Q9Y478 whole entry partner): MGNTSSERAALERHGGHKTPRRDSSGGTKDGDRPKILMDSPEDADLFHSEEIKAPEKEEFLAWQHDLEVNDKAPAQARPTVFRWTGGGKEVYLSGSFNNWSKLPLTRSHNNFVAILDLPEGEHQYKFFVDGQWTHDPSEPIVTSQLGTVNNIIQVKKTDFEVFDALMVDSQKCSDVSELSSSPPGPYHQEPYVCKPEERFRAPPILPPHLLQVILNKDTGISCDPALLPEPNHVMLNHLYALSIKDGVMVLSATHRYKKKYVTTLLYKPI

In the case of `COc1ccc2nc3cc(Cl)ccc3c(Nc3cc(CN4CCCC4)c(O)c(CN4CCCC4)c3)c2n1` [Pyronaridine, 4-[(7-Chloro-2-methoxybenzo[b][1,5]naphthyridin-10-yl)amino]-2,6-bis(1-pyrrolidinylmethyl)phenol phosphate (1:4)], the inhibition at 1 µM [1] is reported as 10%, the inhibition at 1 µM [2] is reported as -7% and the inhibition at 1 µM [3] is reported as -3%. For the same compound, the inhibition at 1 µM [4] was -11%, the inhibition at 1 µM [5] was -4% and the inhibition at 1 µM [6] was -10%. It also gave an inhibition at 1 µM [7] of 0%, an inhibition at 1 µM [8] of 2% and an inhibition at 1 µM [9] of 2%. The inhibition at 1 µM [10] was -3%, the inhibition at 1 µM [11] was 28% and the inhibition at 1 µM [12] was -16%. For the same compound, the inhibition at 1 µM [13] was -10%, the inhibition at 1 µM [14] was -2% and the inhibition at 1 µM [15] was 1%. It also gave an inhibition at 1 µM [16] of -4%, an inhibition at 1 µM [17] of 0% and an inhibition at 1 µM [18] of 7%. For the same compound, the inhibition at 1 µM [19] was -1%, the inhibition at 1 µM [20] was -9% and the inhibition at 1 µM [21] was 5%. The inhibition at 1 µM [22] was 1%, the inhibition at 1 µM [23] was -6% and the inhibition at 1 µM [24] was 1%. The inhibition at 1 µM [25] was 3%, the inhibition at 1 µM [26] was 5% and the inhibition at 1 µM [27] was 0%. It also gave an inhibition at 1 µM [28] of 1%.
